Source: patent US20010041682A1, “Dinucleotides useful for the treatment of lung disease” (priority 1995, published 2001)

How the values were obtained:
airway epithelia = test: Cl− secretion by cultured normal airway cells on permeable supports (Example 1); format: cell-based
Experimental: (§1) Normal airway cells were cultured on permeable supports and Cl^− secretion assayed as previously described in M. J. Stutts, et al., Am. J. Physiol. 267, C1442-C1451 (1994). Cl^− secretion was measured after administration of the dinucleotide A2P4 (Sigma Chemicals, St. Louis, Mo.). Amiloride was added to block airway epithelial sodium absorption.
Moreover, the administration of A2P4 had no effect on Cl^− secretion in airway epithelia pre-stimulated with UTP, which is known to activate non-CFTR Cl^− channels. […] Stimulation of this receptor is thus a therapeutic strategy for certain lung diseases, including cystic fibrosis.

[1] = test system: Cultured airway epithelia; test: Cl− secretion by cultured airway epithelia, UTP compared with U2P4 (Example 2); format: cell-based; conditions: for Mean Cl− secretion Induced: 10^−4 M on mucosal surface, tissues pretreated with amiloride (10^−4 M); for Effectiveness (efficacy) on Cl− secretion, UTP compared with U2P4: 10^−4 M, the highest concentration tested, amiloride (10^−4 M) pretreated
Experimental: as §1
Studies were carried out according to the method described in Example 1 to compare the effectiveness (efficacy) of UTP and U2P4. Cultured airway epithelia were exposed to a concentration of from 10^−9 M to […] of either UTP or U2P4 in 6 ml of solution circulating over the mucosal surface. The tissues were pretreated with amiloride (10^−4 M) to block Na^+ absorption. Under these conditions, the current generated by the tissues is due to Cl^− secretion. UTP and U2P4 induced a similar pattern of Cl^− secretion. At 10^−4 M, the highest concentration tested, UTP and U2P4 were equieffective (equiefficacious).

| SMILES | Effect on Cl− secretion (airway epithelia; airway epithelia pre-stimulated with UTP) | Effect on Cl− secretion (airway epithelia; exposed to the basolateral surface of the airway epithelial preparation, amiloride added) | Effect on Cl− secretion (airway epithelia; luminal surface, airway epithelia treated with forskolin, amiloride added) | Mean Cl− secretion Induced [1] | Effectiveness (efficacy) on Cl− secretion, UTP compared with U2P4 [1] |
| --- | --- | --- | --- | --- | --- |
| Nc1ncnc2c1ncn2[C@@H]1O[C@H](COP(=O)(O)OP(=O)(O)OP(=O)(O)OP(=O)(O)OC[C@H]2O[C@@H](n3cnc4c(N)ncnc43)[C@H](O)[C@@H]2O)[C@@H](O)[C@H]1O [A2P4] | no effect | little effect | stimulated additional Cl^− secretion | – | – |
| O=c1ccn([C@@H]2O[C@H](COP(=O)(O)OP(=O)(O)OP(=O)(O)OP(=O)(O)OC[C@H]3O[C@@H](n4ccc(=O)[nH]c4=O)[C@H](O)[C@@H]3O)[C@@H](O)[C@H]2O)c(=O)[nH]1 [U2P4, UppppU] | – | – | – | 43.8 μA/cm^2 | equieffective |
| O=c1ccn([C@@H]2O[C@H](COP(=O)(O)OP(=O)(O)OP(=O)(O)O)[C@@H](O)[C@H]2O)c(=O)[nH]1 [UTP, reference compound] | – | – | – | 45.3 μA/cm^2 | equieffective |
